Data: patent US10500166B2, “Methods for the treatment of erectile dysfunction using fispemifene” (QUATRX PHARMACEUTICALS, priority 2007, dated 2019)

Experiments:
[1] = tested on: total testosterone; assay: Example 3 study in hypogonadal men: morning serum total testosterone (ITT); type: in vivo, human
Method: A randomized, double-blind, placebo controlled, parallel-group study of once-daily doses of fispemifene (100, 200, and 300 mg/day) given for 4 weeks was conducted in a population of hypogonadal men. Subjects were required to meet all of the following inclusion criteria at screening and prior to randomization to be eligible for the study:
There were 77 subjects total. The number of subjects randomized to the 100 mg fispemifene, 200 mg fispemifene, 300 mg fispemifene, and placebo arms were 21, 21, 19, and 16, respectively.
Subjects were randomly assigned to one of four treatment groups in a 1:1:1:1 ratio: • Treatment A (100 mg): fispemifene 100 mg+placebo+placebo; • Treatment B (200 mg): fispemifene 100 mg+fispemifene 100 mg+placebo; • Treatment C (300 mg): fispemifene 100 mg+fispemifene 100 mg+fispemifene 100 mg; and • Treatment D (Placebo): placebo+placebo+placebo.
Subjects took one dose (three capsules) of study medication once a day at home for 4 weeks. Capsules were to be taken in the morning immediately after breakfast, with the exception of the morning of the Week 4 visit. Capsules were not to be taken on the morning of the Week 4 visit because trough plasma levels of fispemifene were determined by a blood sample taken at this visit. Each subject was randomly assigned to treatment with one of the 3 different dose regimens of fispemifene or placebo vehicle. Each subject received a 4 week supply of study drug.
Blood samples were taken from the subjects within 1 week prior to dosing with study drug to establish baseline values; after 2 and 4 weeks of randomization; and 2 weeks after the last dose of study drug. Serum was prepared from those samples and used to determine the mean % change from baseline in total testosterone, free testosterone, SHBG (sex hormone-binding globulin), DHT (dihydrotestosterone), E2 (estradiol), LH (luteinizing hormone), FSH (follicle stimulating hormone), and inhibin B.
The primary efficacy endpoint was defined as percent change from baseline in morning total testosterone levels at Week 4. The intent-to-treat (“ITT”) population was the primary population for analysis. The secondary efficacy endpoints included:
2. Percent change from baseline in total testosterone levels at Weeks 2 and 6; and […]

[2] = Phase I repeated dose study 101-50202: safety and tolerability; type: in vivo, human
Method: A suitable dosage is expected to be in a range of about 5 mg/day to about 1500 mg/day. In a phase I repeated dose study, twenty-three healthy men aged 50 to 70 years received daily 10 mg, 30 mg 100 mg and 300 mg dosages of fispemifene for 28 days. […] All other adverse events were single cases. Fispemifene at the 100 and 300 mg/day dose levels increased serum total testosterone levels 32% and 75% respectively. Thus, a preferred dosage range of fispemifene to treat ED is expected to be 10 to 1000 mg/day.
Fispemifene has been studied in two phase I studies in humans—in a single dose and a repeated dose study. Effect of fispemifene on hormone levels was one main focus of the repeated dose study. The phase I repeated dose study (number 101-50202) was a randomized, double-blind, placebo-controlled 28-day dose-escalation study performed in 31 healthy, elderly men, aged 50-68 years. The main objective of the study was to investigate the tolerability, safety and pharmacokinetics of fispemifene after repeated oral doses, but the study focused also on the effects of fispemifene on serum free and total testosterone, estradiol, and other relevant hormones. The fispemifene doses 10, 30, 100 and 300 mg per day and placebo were administered once every morning as capsules containing 10 mg or 100 mg of fispemifene, or placebo.
The variables for safety and tolerability were adverse events, vital signs, 12-lead ECG, clinical laboratory evaluations, physical examination, ultrasound examinations (mammary glands) and inhibin B. For pharmacokinetics, the concentrations of fispemifene and its metabolite(s) were to be evaluated. For pharmacodynamics, serum concentrations of FSH, LH, estradiol, testosterone, SHBG, prolactin, aldosterone, cortisol and TSH before and during treatment were measured and compared with the concentrations in the placebo-group.

[3] = 100 mg/day, Week 6 (2 weeks after discontinuation)
[4] = 100 mg/day, to Week 6 (2 weeks after discontinuation)
[5] = 200 mg/day, Week 6 (2 weeks after discontinuation)
[6] = 200 mg/day, to Week 6 (2 weeks after discontinuation)
[7] = 300 mg/day, Week 6 (2 weeks after discontinuation)
[8] = 300 mg/day, to Week 6 (2 weeks after discontinuation)

OCCOCCOc1ccc(/C(=C(/CCCl)c2ccccc2)c2ccccc2)cc1 [Fispemifene, (Z)-2-{2-[4-(4-Chloro-1,2-diphenylbut-1-enyl)phenoxy]ethoxy}ethanol]
Total Testosterone, Max ([1]; 100 mg/day, Baseline (Visit 2)): 347.0 ng/dL
Total Testosterone, Mean ± SD ([1]; 100 mg/day, Baseline (Visit 2)): 248.6 ± 68.90 ng/dL
Total Testosterone, Median ([1]; 100 mg/day, Baseline (Visit 2)): 266.0 ng/dL
Total Testosterone, Min ([1]; 100 mg/day, Baseline (Visit 2)): 101.0 ng/dL
Total Testosterone, Max ([1]; 100 mg/day, Week 2): 585.0 ng/dL
Total Testosterone, Mean ± SD ([1]; 100 mg/day, Week 2): 369.9 ± 88.23 ng/dL
Total Testosterone, Median ([1]; 100 mg/day, Week 2): 350.0 ng/dL
Total Testosterone, Min ([1]; 100 mg/day, Week 2): 235.0 ng/dL
Total Testosterone, Max ([1]; 100 mg/day, Week 4): 535.0 ng/dL
Total Testosterone, Mean ± SD ([1]; 100 mg/day, Week 4): 371.6 ± 83.36 ng/dL
Total Testosterone, Median ([1]; 100 mg/day, Week 4): 353.0 ng/dL
Total Testosterone, Min ([1]; 100 mg/day, Week 4): 246.0 ng/dL
Total Testosterone, Max [1, 3]: 414.0 ng/dL
Total Testosterone, Mean ± SD [1, 3]: 271.9 ± 69.21 ng/dL
Total Testosterone, Median [1, 3]: 265.0 ng/dL
Total Testosterone, Min [1, 3]: 121.0 ng/dL
Total Testosterone, % Change from Baseline, Max ([1]; 100 mg/day, to Week 2): 133%
Total Testosterone, % Change from Baseline, Median ([1]; 100 mg/day, to Week 2): 45%
Total Testosterone, % Change from Baseline, Min ([1]; 100 mg/day, to Week 2): 14%
Total Testosterone, % Change from Baseline, Max ([1]; 100 mg/day, to Week 4): 198%
Total Testosterone, % Change from Baseline, Median ([1]; 100 mg/day, to Week 4): 35%
Total Testosterone, % Change from Baseline, Min ([1]; 100 mg/day, to Week 4): 7%
Total Testosterone, % Change from Baseline, Max [1, 4]: 119%
Total Testosterone, % Change from Baseline, Median [1, 4]: 11%
Total Testosterone, Max ([1]; 200 mg/day, Baseline (Visit 2)): 334.0 ng/dL
Total Testosterone, Mean ± SD ([1]; 200 mg/day, Baseline (Visit 2)): 249.1 ± 60.90 ng/dL
Total Testosterone, Median ([1]; 200 mg/day, Baseline (Visit 2)): 253.0 ng/dL
Total Testosterone, Min ([1]; 200 mg/day, Baseline (Visit 2)): 133.0 ng/dL
Total Testosterone, Max ([1]; 200 mg/day, Week 2): 497.0 ng/dL
Total Testosterone, Mean ± SD ([1]; 200 mg/day, Week 2): 370.0 ± 72.44 ng/dL
Total Testosterone, Median ([1]; 200 mg/day, Week 2): 354.0 ng/dL
Total Testosterone, Min ([1]; 200 mg/day, Week 2): 238.0 ng/dL
Total Testosterone, Max ([1]; 200 mg/day, Week 4): 626.0 ng/dL
Total Testosterone, Mean ± SD ([1]; 200 mg/day, Week 4): 387.3 ± 107.39 ng/dL
Total Testosterone, Median ([1]; 200 mg/day, Week 4): 372.0 ng/dL
Total Testosterone, Min ([1]; 200 mg/day, Week 4): 241.0 ng/dL
Total Testosterone, Max [1, 5]: 539.0 ng/dL
Total Testosterone, Mean ± SD [1, 5]: 276.2 ± 97.28 ng/dL
Total Testosterone, Median [1, 5]: 240.0 ng/dL
Total Testosterone, Min [1, 5]: 162.0 ng/dL
Total Testosterone, % Change from Baseline, Max ([1]; 200 mg/day, to Week 2): 142%
Total Testosterone, % Change from Baseline, Median ([1]; 200 mg/day, to Week 2): 48%
Total Testosterone, % Change from Baseline, Min ([1]; 200 mg/day, to Week 2): 17%
Total Testosterone, % Change from Baseline, Median ([1]; 200 mg/day, to Week 4): 60%
Total Testosterone, % Change from Baseline, Max [1, 6]: 79%
Total Testosterone, % Change from Baseline, Median [1, 6]: 11%
Total Testosterone, Max ([1]; 300 mg/day, Baseline (Visit 2)): 348.0 ng/dL
Total Testosterone, Mean ± SD ([1]; 300 mg/day, Baseline (Visit 2)): 234.2 ± 77.69 ng/dL
Total Testosterone, Median ([1]; 300 mg/day, Baseline (Visit 2)): 246.0 ng/dL
Total Testosterone, Min ([1]; 300 mg/day, Baseline (Visit 2)): 17.0 ng/dL
Total Testosterone, Max ([1]; 300 mg/day, Week 2): 526.0 ng/dL
Total Testosterone, Mean ± SD ([1]; 300 mg/day, Week 2): 379.2 ± 122.04 ng/dL
Total Testosterone, Median ([1]; 300 mg/day, Week 2): 427.0 ng/dL
Total Testosterone, Min ([1]; 300 mg/day, Week 2): 13.0 ng/dL
Total Testosterone, Max ([1]; 300 mg/day, Week 4): 643.0 ng/dL
Total Testosterone, Mean ± SD ([1]; 300 mg/day, Week 4): 430.7 ± 163.39 ng/dL
Total Testosterone, Median ([1]; 300 mg/day, Week 4): 479.0 ng/dL
Total Testosterone, Min ([1]; 300 mg/day, Week 4): 8.0 ng/dL
Total Testosterone, Max [1, 7]: 423.0 ng/dL
Total Testosterone, Mean ± SD [1, 7]: 279.2 ± 102.84 ng/dL
Total Testosterone, Median [1, 7]: 293.0 ng/dL
Total Testosterone, Min [1, 7]: 16.0 ng/dL
Total Testosterone, % Change from Baseline, Max ([1]; 300 mg/day, to Week 2): 101%
Total Testosterone, % Change from Baseline, Median ([1]; 300 mg/day, to Week 2): 65%
Total Testosterone, % Change from Baseline, Max ([1]; 300 mg/day, to Week 4): 181%
Total Testosterone, % Change from Baseline, Median ([1]; 300 mg/day, to Week 4): 80%
Total Testosterone, % Change from Baseline, Max [1, 8]: 77%
Total Testosterone, % Change from Baseline, Median [1, 8]: 14%
effect on serum total testosterone concentration ([1]; hypogonadal men, within 14 days from the start of treatment, maintained during treatment): clinically and statistically significant and dose dependent increase to, but not beyond, the normal range
adverse events reported more than once ([2]; 10, 30, 100 and 300 mg daily for 28 days): upper respiratory tract infection, nausea and abdominal pain
tolerability ([2]; 10, 30, 100 and 300 mg daily for 28 days, all dose levels): well tolerated
safety concerns ([2]; any dose (10-300 mg/day)): no safety concerns
